Test results published in patent US20250041323A1, “BDNF PRODUCTION PROMOTER” (YAMASA CORPORATION, priority 2022, published 2025).

Legend:
BDNF mRNA in PC-12 cells [1] = assay: BDNF gene expression promoting effect-2: BDNF mRNA by real-time PCR in PC-12 cells (uridylic acid); assay type: cell-based, rat; settings: 500 µM, 4 hours, n=3
Protocol: Rat adrenal medulla brown tumor-derived cells (PC-12 cells, JCRB0733), used as nervous system model cells, were suspended in DMEM containing 20% FBS and antibiotics, seeded on a collagen-coated 24-well plate at a density of 2.4×10^5 cells/well, and cultured in an incubator at 37° C. and 5% CO2 for 18 hours. Uridylic acid (UMP) was added to a final concentration of 500 µM, and cultured for 4 hours.
Subsequently, mRNA was extracted and an amount of mRNA of BDNF was evaluated by reverse transcription and real-time PCR analysis in the same procedure as that of Example 1.

[2] = tested on: BDNF mRNA in C2C12 cell-derived myotube cells; assay: BDNF gene expression promoting effect-1: BDNF mRNA by real-time PCR in C2C12 cell-derived myotube cells; assay type: cell-based, mouse; settings: 1 mM, 4 hours, corrected to β-actin mRNA, vs control without test substance, Dunnett's test, n=3
Protocol: Mouse myoblast cell line C2C12 cells (RIKEN BRC, RCB0987) were suspended in a growth medium (DMEM containing 10% FBS and antibiotics), seeded in a 24-well plate, and cultured in an incubator at 37° C. and 5% CO2 until the cell density reached 70-90%. The growth medium was removed and replaced with a differentiation induction medium (DMEM containing 2% horse serum and antibiotics). After culturing it for 6 days while changing the medium once every 2 days, cytidylic acid (CMP) or uridylic acid (UMP) was added to a final concentration of 1 mM and cultured for 4 hours. The medium was removed, and the total RNA was extracted from the cells using NucleoSpin® RNA (TAKARA BIO INC).
Using the total RNA as a template, a reverse transcription reaction solution was prepared using ReverTra Ace® qPCR RT Kit (TOYOBO). The reverse transcription reaction solution, GoTaq qPCR Master Mix (Promega), and a real-time PCR device Thermal Cycler Dice® Real Time System (TAKARA BIO INC) were used to measure amounts of mRNAs of BDNF and β-actin as an internal standard. Analysis was performed by relative quantification, and the amount of the mRNA was corrected using the amount of mRNA of β-actin as an endogenous control.
The threshold of statistical significance was set at 5%. In addition, unless otherwise specified, including the following Examples, each sample was examined at n=3.

[3] = tested on: BDNF protein in PC-12 cells; assay: BDNF protein by Rat BDNF ELISA in PC-12 cell lysate; assay type: cell-based; settings: 200 µM, 24 hours, t-test vs control, n=3
Protocol: PC-12 cells were suspended in DMEM containing 20% FBS and antibiotics, seeded on a collagen-coated 24-well plate at a density of 2.4×10^5 cells/well, and cultured in an incubator at 37° C. and 5% CO2 for 18 hours. Uridine was added to a final concentration of 200 µM, and cultured for 24 hours. The medium was removed by suction, and 100 μl of RIPA buffer (50 mM Tris-HCl (pH 7.6), 150 mM NaCl, 1% NP-40, 0.5% sodium deoxycholate, 1% SDS) containing 1% protease inhibitor cocktail (nacalai tesque) was added, and the cells were disrupted by pipetting and ultrasonication. The amount of BDNF in the cell lysate was measured using a Rat BDNF ELISA Kit (RayBiotech). The amount of protein in the cell lysate was measured using a Micro BCA™ Protein Assay Kit (Thermo Fisher Scientific), and the amount of BDNF per total protein mass was calculated. […] The threshold for statistical significance was set at 5%.

BDNF mRNA in PC-12 cells [4] = assay: BDNF gene expression promoting effect-3: BDNF mRNA by real-time PCR in PC-12 cells (uridine); assay type: cell-based, rat; settings: 200 μM, 1 hour, n=3
Protocol: PC-12 cells were suspended in DMEM containing 5% FBS (fetal bovine serum), 10% horse serum, and antibiotics (100 units/ml of penicillin, 100 μg/ml of streptomycin), seeded on a collagen-coated 24-well plate at a density of 2.4×10^5 cells/well, and cultured in an incubator at 37° C. and 5% CO2 for 18 hours. Uridine, a precursor of uridylic acid, was added to a final concentration of 200 μM, and cultured for 1 hour. Subsequently, mRNA was extracted, and the amount of mRNA of BDNF was evaluated by reverse transcription and real-time PCR analysis in the same procedure as that of Example 1.

Row | SMILES | amount of mRNA of BDNF (BDNF mRNA in PC-12 cells [1]) | amount of mRNA of BDNF [2] | amount of BDNF per total protein mass [3] | amount of mRNA of BDNF (BDNF mRNA in PC-12 cells [4])
1 | O=c1ccn([C@@H]2O[C@H](COP(=O)(O)O)[C@@H](O)[C@H]2O)c(=O)[nH]1 [uridylic acid] | significantly increased | significantly increased | – | –
2 | O=c1ccn([C@@H]2O[C@H](CO)[C@@H](O)[C@H]2O)c(=O)[nH]1 [uridine] | – | – | significantly increased | significantly increased
3 | Nc1ccn([C@@H]2O[C@H](COP(=O)(O)O)[C@@H](O)[C@H]2O)c(=O)n1 [cytidylic acid] | – | significantly increased | – | –
